Measured values published in patent US8008484B2 (priority 2004, dated 2011).

Assays:
[1] = test system: Cucumber (variety: SAGAMI HANPAKU); assay: Phytotoxicity studied in the Botrytis cinerea foliage test; type: in vivo; details: cucumber seedlings, foliar spray, 500 ppm
Method: Cucumber (variety: SAGAMI HANPAKU) was cultivated in a plastic pot of 4 cm diameter. A diluted solution of an active compound of the prescribed concentration, prepared in a similar manner as in the above-mentioned Test Example 1, was sprayed to seedlings reached to cotyledon in an amount of 6 ml per 2 pots. One day after the spraying, an inoculant, prepared by mixing a suspension of artificially cultured spores of Botrytis cinerea and agar gel (2×10^4 spores/ml gel), was placed on cotyledons to inoculate and infected in a moisture box kept at 20° C. Four days after the inoculation, the contraction rate per cotyledon was classified and evaluated according to the following standard to obtain the controlling value (%). Phytotoxicity was also studied at the same time. This test is an average of the results of 2 sections 4 cotyledons.

[2] = test system: Paddy rice (variety: KOSIHIKARI); details: foliar spray, 500 ppm

| Compound | Phytotoxicity [1] | Phytotoxicity [2] |
| --- | --- | --- |
| COc1cc(OC)nc(C(O)c2cc(C)cc(F)c2NS(=O)(=O)C(F)F)n1 (racemic) [Compound 4-107] | No phytotoxicity was observed | – |
| COc1cc(OC)nc(C(O)c2cc(C)cc(Cl)c2NS(=O)(=O)C(F)F)n1 (racemic) [Compound 4-130] | No phytotoxicity was observed | No phytotoxicity was observed |
| COc1cc(OC)nc(C(O)c2ccc(F)c(C)c2NS(=O)(=O)C(F)F)n1 (racemic) [Compound 4-184] | – | No phytotoxicity was observed |
| COc1cc(OC)nc(C(O)c2ccc(F)cc2NS(=O)(=O)C(F)F)n1 (racemic) [Compound 4-186] | No phytotoxicity was observed | – |
| COc1cc(OC)nc(C(O)c2ccc(C)c(C)c2NS(=O)(=O)C(F)F)n1 (racemic) [Compound 4-187] | No phytotoxicity was observed | – |
| COc1cc(OC)nc(C(O)c2cc(C)cc(F)c2NS(=O)(=O)CC(F)(F)F)n1 (racemic) [Compound 12-131] | – | No phytotoxicity was observed |
| COc1cc(OC)nc(C(O)c2ccc(F)c(C)c2NS(=O)(=O)CC(F)(F)F)n1 (racemic) [Compound 12-137] | – | No phytotoxicity was observed |
| COc1cc(OC)nc(C(SC)c2cccc(F)c2NS(=O)(=O)C(F)F)n1 (stereo not shown) [Compound 1-14] | No phytotoxicity was observed | – |
| COc1cc(OC)nc(Cc2ccccc2NS(=O)(=O)C(F)F)n1 [Compound 2-1] | No phytotoxicity was observed | – |
| COc1cc(OC)nc(Cc2cccc(F)c2N(C(C)=O)S(=O)(=O)C(F)F)n1 [Compound 2-18] | No phytotoxicity was observed | – |
| COc1cc(OC)nc(Cc2cccc(Cl)c2N(C(C)=O)S(=O)(=O)C(F)F)n1 [Compound 2-31] | No phytotoxicity was observed | No phytotoxicity was observed |
| COC(=O)N(c1c(Cl)cccc1Cc1nc(OC)cc(OC)n1)S(=O)(=O)C(F)F [Compound 2-32] | – | No phytotoxicity was observed |
| COc1cc(OC)nc(Cc2ccc(F)cc2NS(=O)(=O)C(F)F)n1 [Compound 2-61] | – | No phytotoxicity was observed |
| COc1cc(OC)nc(Cc2cc(F)ccc2NS(=O)(=O)C(F)F)n1 [Compound 2-62] | – | No phytotoxicity was observed |
| COc1cc(OC)nc(Cc2ccc(F)c(F)c2NS(=O)(=O)C(F)F)n1 [Compound 2-110] | No phytotoxicity was observed | – |
| COc1cc(OC)nc(Cc2cc(F)c(Cl)c(F)c2NS(=O)(=O)C(F)F)n1 [Compound 2-125] | – | No phytotoxicity was observed |
| COc1cc(OC)nc(Cc2c(Cl)ccc(Cl)c2NS(=O)(=O)C(F)F)n1 [Compound 2-138] | No phytotoxicity was observed | – |
| COc1cc(OC)nc(Cc2cc(C)c(F)cc2NS(=O)(=O)C(F)F)n1 [Compound 2-190] | – | No phytotoxicity was observed |
| COc1cc(OC)nc(Cc2cccc(Cl)c2N(C(=O)C2CC2)S(=O)(=O)C(F)F)n1 [Compound 2-191] | No phytotoxicity was observed | No phytotoxicity was observed |
| COc1cc(OC)nc(Cc2cc(C)cc(C)c2NS(=O)(=O)C(F)F)n1 [Compound 2-192] | No phytotoxicity was observed | – |
| COc1cc(OC)nc(Cc2ccc(F)c(C)c2NS(=O)(=O)C(F)F)n1 [Compound 2-193] | – | No phytotoxicity was observed |
| COc1cc(OC)nc(C(=O)c2cccc(Cl)c2N(C(C)=O)S(=O)(=O)C(F)F)n1 [Compound 3-22] | – | No phytotoxicity was observed |
| COc1cc(OC)nc(C(=O)c2cccc(F)c2NS(=O)(=O)C(F)F)n1 [Compound 9-25] | No phytotoxicity was observed | – |

| Compound | Phytotoxicity [1] | Phytotoxicity [2] |
| --- | --- | --- |
| COc1cc(OC)nc(C(=O)c2cccc(Cl)c2NS(=O)(=O)C(F)F)n1 [Compound 9-26] | No phytotoxicity was observed | – |
| COc1nc(OC)nc(C(=O)c2ccccc2NS(=O)(=O)C(F)F)n1 [Compound 9-48] | No phytotoxicity was observed | – |
| COc1cc(OC)nc(C(Cl)c2cccc(F)c2NS(=O)(=O)C(F)(F)F)n1 (stereo not shown) [Compound 12-127] | – | No phytotoxicity was observed |
| COc1cc(OC)nc(Cc2cccc(F)c2NS(=O)(=O)C(Cl)Cl)n1 [Compound 12-136] | No phytotoxicity was observed | – |
| COc1cc(OC)nc(Cc2ccc(F)c(C)c2NS(=O)(=O)CC(F)(F)F)n1 [Compound 13-8] | No phytotoxicity was observed | – |
| COc1cc(OC)nc(Cc2ccccc2NS(=O)(=O)C(F)(F)F)n1 [Compound 14-2] | No phytotoxicity was observed | – |
| COc1cc(OC)nc(Cc2cccc(F)c2NS(=O)(=O)CCl)n1 [Compound 14-8] | No phytotoxicity was observed | – |
| COc1cc(OC)nc(Cc2cccc(Cl)c2NS(=O)(=O)C(F)(F)F)n1 [Compound 14-20] | No phytotoxicity was observed | – |
| COc1cc(OC)nc(Cc2cccc(Cl)c2NS(=O)(=O)CC(F)(F)F)n1 [Compound 14-22] | No phytotoxicity was observed | – |
| COc1cc(OC)nc(Cc2cccc(Cl)c2NS(=O)(=O)C(F)F)n1 [Compound 14-35] | No phytotoxicity was observed | – |
| COc1cc(OC)nc(Cc2cccc(C)c2NS(=O)(=O)C(F)F)n1 [Compound 14-37] | No phytotoxicity was observed | No phytotoxicity was observed |
| COCc1c(F)ccc(Cc2nc(OC)cc(OC)n2)c1NS(=O)(=O)C(F)F [Compound 14-40] | No phytotoxicity was observed | – |
| COc1cc(OC)nc(C(O)c2cccc(F)c2NS(C)(=O)=O)n1 (stereo not shown) [Compound 18-2] | – | No phytotoxicity was observed |
| COc1cc(OC)nc(C(O)c2cccc(F)c2NS(=O)(=O)CCl)n1 (stereo not shown) [Compound 18-6] | No phytotoxicity was observed | No phytotoxicity was observed |
| COc1cc(OC)nc(C(O)c2cccc(F)c2NS(=O)(=O)CC(F)(F)F)n1 (stereo not shown) [Compound 18-10] | No phytotoxicity was observed | No phytotoxicity was observed |
| COc1cc(OC)nc(C(O)c2ccccc2NS(=O)(=O)C(F)(F)F)n1 (stereo not shown) [Compound 18-20] | No phytotoxicity was observed | – |
| COc1cc(OC)nc(C(O)c2cccc(F)c2NS(=O)(=O)C(F)(F)F)n1 (stereo not shown) [Compound 18-21] | – | No phytotoxicity was observed |
| COc1cc(OC)nc(C(O)c2ccccc2NS(=O)(=O)C(F)F)n1 (stereo not shown) [Compound 18-24] | No phytotoxicity was observed | No phytotoxicity was observed |
| COc1cc(OC)nc(C(O)c2cccc(F)c2NS(=O)(=O)C(F)F)n1 (stereo not shown) [Compound 18-25] | No phytotoxicity was observed | – |
| COc1cc(OC)nc(C(O)c2cccc(Cl)c2NS(=O)(=O)C(F)F)n1 (stereo not shown) [Compound 18-26] | No phytotoxicity was observed | – |
| COc1nc(OC)nc(C(O)c2cccc(F)c2NS(=O)(=O)C(F)F)n1 (stereo not shown) [Compound 18-51] | No phytotoxicity was observed | – |
| COc1nc(OC)nc(C(O)c2cccc(C)c2NS(=O)(=O)C(F)F)n1 (stereo not shown) [Compound 18-53] | – | No phytotoxicity was observed |
